The target in this assay is T1, JAK2 (JH1domain-catalytic, Y1007F,Y1008F) kinase (Homo sapiens, UniProt O60674, Y1007F/Y1008F).
T1 construct: JAK2 (JH1domain-catalytic, Y1007F,Y1008F) kinase was expressed as N-terminal fusion; made in house; host or cells: transiently transfected HEK293 cells
T1 sequence (O60674 849-1124 Y1007F/Y1008F limits assumed): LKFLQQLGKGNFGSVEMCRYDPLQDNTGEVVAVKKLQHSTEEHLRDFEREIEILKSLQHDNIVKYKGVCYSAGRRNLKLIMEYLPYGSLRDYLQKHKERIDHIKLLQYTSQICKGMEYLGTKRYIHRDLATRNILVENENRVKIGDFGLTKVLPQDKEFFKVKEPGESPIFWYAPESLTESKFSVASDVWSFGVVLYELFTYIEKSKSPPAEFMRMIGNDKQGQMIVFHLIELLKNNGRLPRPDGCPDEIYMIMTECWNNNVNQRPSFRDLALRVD
Kind of assay: JAK2 JH1 Domain Binding Assay. The settings on record: qPCR readout.
In the case of `Cn1c(Nc2cc(C(F)(F)F)cn(C3CC4(COC4)C3)c2=O)nc2ncc(Oc3cnn4ccncc34)c(Cl)c21` [Example I-90, 3-((7-chloro-1-methyl-6-(pyrazolo[1,5-a]pyrazin-3-yloxy)-1H-imidazo[4,5-b]pyridin-2-yl)amino)-1-(2-oxaspiro[3.3]heptan-6-yl)-5-(trifluoromethyl)pyridin-2(1H)-one], the dissociation constant Kd was < 10 nM.

Turning to `Cn1c(Nc2cc(C(F)(F)F)cn(CCCN3CCOCC3)c2=O)nc2ncc(Oc3cnn4ccncc34)c(Cl)c21` [Example I-91, 3-((7-chloro-1-methyl-6-(pyrazolo[1,5-a]pyrazin-3-yloxy)-1H-imidazo[4,5-b]pyridin-2-yl)amino)-1-(3-morpholinopropyl)-5-(trifluoromethyl)pyridin-2(1H)-one], the Kd was < 10 nM.

Take `Cn1cc(C2CC2)cc(Nc2nc3ncc(Oc4cnc5[nH]ncc5c4)c(Cl)c3n2C)c1=O` [Example I-92, 3-((6-((1H-pyrazolo[3,4-b]pyridin-5-yl)oxy)-7-chloro-1-methyl-1H-imidazo[4,5-b]pyridin-2-yl)amino)-5-cyclopropyl-1-methylpyridin-2(1H)-one]: the Kd is < 10 nM.

For `CC(=O)N1CC(n2nc(Nc3nc4ncc(Oc5cnn6ccncc56)c(Cl)c4n3C)cc2C(C)(C)C)C1` [Example I-94, 1-(3-(5-(tert-butyl)-3-((7-chloro-1-methyl-6-(pyrazolo[1,5-a]pyrazin-3-yloxy)-1H-imidazo[4,5-b]pyridin-2-yl)amino)-1H-pyrazol-1-yl)azetidin-1-yl)ethan-1-one], the Kd was < 10 nM.

Take `COc1c(Oc2cnn3ccncc23)cnc2nc(Nc3cc(C4CC4)cn([C@H]4C[C@H](C#N)C4)c3=O)n(C)c12` [Example I-96, trans-3-(5-cyclopropyl-3-((7-methoxy-1-methyl-6-(pyrazolo[1,5-a]pyrazin-3-yloxy)-1H-imidazo[4,5-b]pyridin-2-yl)amino)-2-oxopyridin-1(2H)-yl)cyclobutane-1-carbonitrile]: the Kd fell in the range of 10 to 50 nM.

On to `Cn1c(Nc2cc(C3CC3)cn(CCCN3CCOCC3)c2=O)nc2ncc(Oc3cnn4ccncc34)c(Cl)c21` [Example I-97, 3-((7-chloro-1-methyl-6-(pyrazolo[1,5-a]pyrazin-3-yloxy)-1H-imidazo[4,5-b]pyridin-2-yl)amino)-5-cyclopropyl-1-(3-morpholinopropyl)pyridin-2(1H)-one], for which the Kd is < 10 nM.

For the compound `COc1c(Oc2cnn3ccccc23)cnc2nc(Nc3cc(C4CC4)cn(CCO)c3=O)n(C)c12` [Example I-100, 5-cyclopropyl-1-(2-hydroxyethyl)-3-((7-methoxy-1-methyl-6-(pyrazolo[1,5-a]pyridin-3-yloxy)-1H-imidazo[4,5-b]pyridin-2-yl)amino)pyridin-2(1H)-one], the Kd was 10 to 50 nM.

With `CN1CCN(CCn2cc(C3CC3)cc(Nc3nc4ncc(Oc5cnn6ccccc56)c(Cl)c4n3C)c2=O)CC1` [Example I-102, 3-((7-chloro-1-methyl-6-(pyrazolo[1,5-a]pyridin-3-yloxy)-1H-imidazo[4,5-b]pyridin-2-yl)amino)-5-cyclopropyl-1-(2-(4-methylpiperazin-1-yl)ethyl)pyridin-2(1H)-one], the dissociation constant (Kd) is < 10 nM.

Turning to `Cn1c(Nc2cc(C(F)(F)F)cn(CCO)c2=O)nc2ncc(Oc3cnn4ccccc34)c(Cl)c21` [Example I-103, 3-((7-chloro-1-methyl-6-(pyrazolo[1,5-a]pyridin-3-yloxy)-1H-imidazo[4,5-b]pyridin-2-yl)amino)-1-(2-hydroxyethyl)-5-(trifluoromethyl)pyridin-2(1H)-one], the Kd was < 10 nM.

`COc1c(Oc2cnn3ccncc23)cnc2nc(Nc3cc(C4CC4)cn(CC(C)(C)OC)c3=O)n(C)c12` [Example I-106, 5-cyclopropyl-3-((7-methoxy-1-methyl-6-(pyrazolo[1,5-a]pyrazin-3-yloxy)-1H-imidazo[4,5-b]pyridin-2-yl)amino)-1-(2-methoxy-2-methylpropyl)pyridin-2(1H)-one] registered an equilibrium dissociation constant (Kd) of 10 to 50 nM.

`Cn1c(Nc2cc(C3CC3)cn(-c3cccnc3)c2=O)nc2ncc(Oc3cnn4ccncc34)c(Cl)c21` [Example I-108, 3-((7-chloro-1-methyl-6-(pyrazolo[1,5-a]pyrazin-3-yloxy)-1H-imidazo[4,5-b]pyridin-2-yl)amino)-5-cyclopropyl-2H-[1,3′-bipyridin]-2-one]: the Kd was < 10 nM.

For `Cn1c(Nc2cc(C(F)(F)F)cn(-c3cccnc3)c2=O)nc2ncc(Oc3cnn4ccncc34)c(Cl)c21` [Example I-109, 3-((7-chloro-1-methyl-6-(pyrazolo[1,5-a]pyrazin-3-yloxy)-1H-imidazo[4,5-b]pyridin-2-yl)amino)-5-(trifluoromethyl)-2H-[1,3′-bipyridin]-2-one], the dissociation constant Kd was < 10 nM.

Regarding `COc1c(Oc2cnn3ccccc23)cnc2nc(Nc3cc(C4CC4)cn([C@H]4C[C@H](O)C4)c3=O)n(C)c12` [Example I-111, trans-5-cyclopropyl-1-(3-hydroxycyclobutyl)-3-((7-methoxy-1-methyl-6-(pyrazolo[1,5-a]pyridin-3-yloxy)-1H-imidazo[4,5-b]pyridin-2-yl)amino)pyridin-2(1H)-one], the Kd is < 10 nM.

On to `COc1c(Oc2cnn3ccccc23)cnc2nc(Nc3cc(C4CC4)cn([C@H]4C[C@@H](O)C4)c3=O)n(C)c12` [Example I-112, cis-5-cyclopropyl-1-(3-hydroxycyclobutyl)-3-((7-methoxy-1-methyl-6-(pyrazolo[1,5-a]pyridin-3-yloxy)-1H-imidazo[4,5-b]pyridin-2-yl)amino)pyridin-2(1H)-one], for which the Kd was < 10 nM.

`Cn1cc(-n2cc(C3CC3)cc(Nc3nc4ncc(Oc5cnn6ccccc56)c(Cl)c4n3C)c2=O)cn1` [Example I-115, 3-((7-chloro-1-methyl-6-(pyrazolo[1,5-a]pyridin-3-yloxy)-1H-imidazo[4,5-b]pyridin-2-yl)amino)-5-cyclopropyl-1-(1-methyl-1H-pyrazol-4-yl)pyridin-2(1H)-one]: the Kd was < 10 nM.

On to `Cn1nc(C2CC2)cc(Nc2nc3ncc(Oc4cnn5ccccc45)c(Cl)c3n2C)c1=O` [Example I-116, 4-((7-chloro-1-methyl-6-(pyrazolo[1,5-a]pyridin-3-yloxy)-1H-imidazo[4,5-b]pyridin-2-yl)amino)-6-cyclopropyl-2-methylpyridazin-3(2H)-one], for which the dissociation constant Kd was < 10 nM.

Consider `Cn1c(Nc2cc(C3CC3)cn(CCCN3CCC(F)(F)C3)c2=O)nc2ncc(Oc3cnn4ccncc34)c(Cl)c21` [Example I-117, 3-((7-chloro-1-methyl-6-(pyrazolo[1,5-a]pyrazin-3-yloxy)-1H-imidazo[4,5-b]pyridin-2-yl)amino)-5-cyclopropyl-1-(3-(3,3-difluoropyrrolidin-1-yl)propyl)pyridin-2(1H)-one], for which the Kd is < 10 nM.

For the compound `Cn1c(Nc2cc(C(F)(F)F)cn(CCCN3CCC(F)(F)C3)c2=O)nc2ncc(Oc3cnn4ccncc34)c(Cl)c21` [Example I-118, 3-((7-chloro-1-methyl-6-(pyrazolo[1,5-a]pyrazin-3-yloxy)-1H-imidazo[4,5-b]pyridin-2-yl)amino)-1-(3-(3,3-difluoropyrrolidin-1-yl)propyl)-5-(trifluoromethyl)pyridin-2(1H)-one], the Kd is 10 to 50 nM.

In the case of `CN1CCN(Cc2ccc(Nc3nc4ncc(Oc5cnn6ccncc56)c(Cl)c4n3C)cc2C(F)(F)F)CC1` [Example I-120, 7-chloro-1-methyl-N-(4-((4-methylpiperazin-1-yl)methyl)-3-(trifluoromethyl)phenyl)-6-(pyrazolo[1,5-a]pyrazin-3-yloxy)-1H-imidazo[4,5-b]pyridin-2-amine], the Kd was < 10 nM.

On to `COc1c(Oc2cnn3ccccc23)cnc2nc(Nc3cc(C4CC4)cn(CCCN4CCC(F)(F)C4)c3=O)n(C)c12` [Example I-123, 5-cyclopropyl-1-(3-(3,3-difluoropyrrolidin-1-yl)propyl)-3-((7-methoxy-1-methyl-6-(pyrazolo[1,5-a]pyridin-3-yloxy)-1H-imidazo[4,5-b]pyridin-2-yl)amino)pyridin-2(1H)-one], for which the Kd was in the range of 10 to 50 nM.

On to `Cn1c(Nc2cc3n(n2)CCCC3(C)C)nc2ncc(Oc3cnn4ccnc(OCCO)c34)c(Cl)c21` [Example I-124, 2-((3-((7-chloro-2-((4,4-dimethyl-4,5,6,7-tetrahydropyrazolo[1,5-a]pyridin-2-yl)amino)-1-methyl-1H-imidazo[4,5-b]pyridin-6-yl)oxy)pyrazolo[1,5-a]pyrazin-4-yl)oxy)ethan-1-ol], for which the Kd was < 10 nM.

`CNc1nccn2ncc(Oc3cnc4nc(Nc5cc6n(n5)CCCC6(C)C)n(C)c4c3Cl)c12` [Example I-125, 7-chloro-N-(4,4-dimethyl-4,5,6,7-tetrahydropyrazolo[1,5-a]pyridin-2-yl)-1-methyl-6-((4-(methylamino)pyrazolo[1,5-a]pyrazin-3-yl)oxy)-1H-imidazo[4,5-b]pyridin-2-amine] returned a Kd of 10 to 50 nM.

As for `Cn1c(Nc2cc(C3CC3)nn(CCO)c2=O)nc2ncc(Oc3cnn4ccccc34)c(Cl)c21` [Example I-126, 4-((7-chloro-1-methyl-6-(pyrazolo[1,5-a]pyridin-3-yloxy)-1H-imidazo[4,5-b]pyridin-2-yl)amino)-6-cyclopropyl-2-(2-hydroxyethyl)pyridazin-3(2H)-one], the Kd is < 10 nM.

Regarding `Cn1cc(C(F)(F)F)cc(Nc2nc3ncc(Oc4cnn5ccnc(OCCN6CCOCC6)c45)c(Cl)c3n2C)c1=O` [Example I-127, 3-((7-chloro-1-methyl-6-((4-(2-morpholinoethoxy)pyrazolo[1,5-a]pyrazin-3-yl)oxy)-1H-imidazo[4,5-b]pyridin-2-yl)amino)-1-methyl-5-(trifluoromethyl)pyridin-2(1H)-one], the Kd is 10 to 50 nM.

For `CNc1nccn2ncc(Oc3cnc4nc(Nc5cc(C(F)(F)F)cn(C)c5=O)n(C)c4c3Cl)c12` [Example I-128, 3-((7-chloro-1-methyl-6-((4-(methylamino)pyrazolo[1,5-a]pyrazin-3-yl)oxy)-1H-imidazo[4,5-b]pyridin-2-yl)amino)-1-methyl-5-(trifluoromethyl)pyridin-2(1H)-one], the Kd is < 10 nM.

The term Kd denotes the concentration at which binding is half-saturated. Low values mean a tighter complex, high ones a looser complex.
